Columns and labels:
Assay type in all cases: binding
Ascaris eIF4E-3 [1] = biological target: T1, Ascaris eIF4E-3 (Ascaris suum, UniProt Q6PKX2); assay: fluorescence titration; settings: read-out: KD (μM) / Ascaris eIF4E-3; 50 mM HEPES/KOH pH 7.20, 200 mM KCl, 1 mM DTT, 0.5 mM EDTA, 20 °C
T1 sequence (Q6PKX2 1-236): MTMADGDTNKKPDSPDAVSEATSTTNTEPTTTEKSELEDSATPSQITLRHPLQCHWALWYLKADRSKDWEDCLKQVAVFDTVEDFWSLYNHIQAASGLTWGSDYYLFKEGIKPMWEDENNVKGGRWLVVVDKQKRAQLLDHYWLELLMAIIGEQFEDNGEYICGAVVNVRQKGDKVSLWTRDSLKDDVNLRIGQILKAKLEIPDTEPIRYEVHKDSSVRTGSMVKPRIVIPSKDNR

Ascaris eIF4E-3 (49–236) = biological target: T2, Ascaris eIF4E-3 (49–236) (Ascaris suum, UniProt Q6PKX2); assay: isothermal titration calorimetry
T2 sequence (Q6PKX2 49-236): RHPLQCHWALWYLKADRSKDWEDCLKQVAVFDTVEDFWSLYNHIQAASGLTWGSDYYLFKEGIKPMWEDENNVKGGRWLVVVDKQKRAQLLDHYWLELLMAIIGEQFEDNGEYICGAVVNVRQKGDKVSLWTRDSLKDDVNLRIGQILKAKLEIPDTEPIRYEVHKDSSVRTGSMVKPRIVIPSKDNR

Human eIF4E = Human eIF4E (Homo sapiens, UniProt P06730); assay: isothermal titration calorimetry
Human eIF4E, sequence (P06730 whole entry): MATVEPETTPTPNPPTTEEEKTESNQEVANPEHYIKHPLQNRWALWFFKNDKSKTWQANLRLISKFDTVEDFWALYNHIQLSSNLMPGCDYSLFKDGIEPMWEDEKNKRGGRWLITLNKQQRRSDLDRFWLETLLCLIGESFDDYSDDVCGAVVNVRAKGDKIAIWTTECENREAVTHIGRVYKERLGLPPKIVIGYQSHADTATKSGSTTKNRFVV

Ascaris eIF4E-3 [2] = biological target: T3, Ascaris eIF4E-3 (Ascaris suum, UniProt Q6PKX2, E116D); assay: isothermal titration calorimetry; settings: 20 mM HEPES pH 7.4, 1 mM EDTA, 100 mM KCl, 20 °C
T3 sequence (Q6PKX2 1-236 E116D): T1 sequence (Q6PKX2 1-236)

Ascaris eIF4E-3 [3] = biological target: T1, Ascaris eIF4E-3; assay: isothermal titration calorimetry; settings: 20 mM HEPES pH 7.4, 1 mM EDTA, 100 mM KCl, 20 °C; single-site model
Human eIF4E (28–217) = Human eIF4E (28–217) (Homo sapiens, UniProt P06730); assay: fluorescence titration
Human eIF4E (28–217), sequence (P06730 28-217): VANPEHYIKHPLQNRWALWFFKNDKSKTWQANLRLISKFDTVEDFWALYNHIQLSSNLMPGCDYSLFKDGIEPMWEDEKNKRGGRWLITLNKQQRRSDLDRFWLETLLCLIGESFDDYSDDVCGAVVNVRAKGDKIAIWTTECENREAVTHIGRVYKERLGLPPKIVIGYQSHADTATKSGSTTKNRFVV

`Nc1nc2c(ncn2[C@@H]2O[C@H](COP(=O)(O)OP(=O)(O)OP(=O)(O)O)[C@@H](O)[C@H]2O)c(=O)[nH]1` [GTP] showed a Kd (Ascaris eIF4E-3 [1]) of 83 ± 14 µM.
Work on `CN(C)c1nc2c(c(=O)[nH]1)[n+](C)cn2[C@@H]1O[C@H](COP(=O)(O)OP(=O)(O)OP(=O)(O)O)[C@@H](O)[C@H]1O` [m^2,2,7GTP] yielded a Kd (Ascaris eIF4E-3 (49–236)) of 12.2 ± 3.9 µM, a Kd (Human eIF4E) of 4.56 ± 2.1 µM and a Kd (Ascaris eIF4E-3 [2]) of 7 ± 0.1 µM. It also gave a Kd (Ascaris eIF4E-3 [3]) of 8.4 ± 1 µM.
For `CN(C)c1nc2c(c(=O)[nH]1)[n+](C)cn2[C@@H]1O[C@H](COP(=O)(O)OP(=O)(O)OP(=O)(O)OC[C@H]2O[C@@H](n3cnc4c(=O)[nH]c(N)nc43)[C@H](O)[C@@H]2O)[C@@H](O)[C@H]1O` [m^2,2,7GpppG], the Kd (Human eIF4E (28–217)) was 3.1 ± 1.1 µM.
`C[n+]1cn([C@@H]2O[C@H](COP(=O)(O)OP(=O)(O)OP(=O)(O)O)[C@@H](O)[C@H]2O)c2nc(N)[nH]c(=O)c21` [m^7GTP] gave a Kd (Ascaris eIF4E-3 (49–236)) of 0.17 ± 0.05 µM, a Kd (Ascaris eIF4E-3 [2]) of 1.98 ± 0.2 µM and a Kd (Ascaris eIF4E-3 [3]) of 0.24 ± 0.04 µM.
In the case of `C[n+]1cn([C@@H]2O[C@H](COP(=O)(O)OP(=O)(O)OP(=O)(O)OC[C@H]3O[C@@H](n4cnc5c(=O)[nH]c(N)nc54)[C@H](O)[C@@H]3O)[C@@H](O)[C@H]2O)c2nc(N)[nH]c(=O)c21` [m^7GpppG], the Kd (Ascaris eIF4E-3 (49–236)) is reported as 0.75 ± 0.19 µM and the Kd (Ascaris eIF4E-3 [1]) is reported as 0.787 ± 0.025 µM.

Source: publication PMC3203607 (Nucleic Acids Research, 2011)
